# Source: patent US20240299358A1, “COMPOSITIONS AND METHODS FOR DIAGNOSIS AND TREATMENT OF AUTOIMMUNE DISEASES” (DUKE UNIVERSITY, priority 2021, published 2024)
# “Also recorded” adds a separate entry of the source.
# How the values were obtained:
# Human CD3+ T cells = experiment: Cytokine expression after anti-CD3/28 T cell stimulation with or without HS-131; format: cell-based; conditions: HS-131 1 μM, 24 hours, vs vehicle
# Procedure: The data were analyzed by 2-way ANOVA with Sidak's multiple comparison test, * p<0.05, ** p<0.01. *** p<0.001. Experiments were performed with 6 biological replicates. […] Experiments were performed with 3 biological replicates for each timepoint. […] Experiments were performed with 3 biological replicates for each timepoint. […] Temporal upregulation of eHsp90 (green line) post T cell stimulation. CD25 expression: 6-8 biological replicates per time point. eHsp90 expression 6 biological replicates for each timepoint. […] Data represent mean ±SD. The data were analyzed by 2-way ANOVA with Sidaks multiple comparison test. Experiments were performed once with 3 biological replicates. […] Data represent mean ±SEM. […] Experiment was performed once with 4 biological replicates.
# Next, the expression of eHsp90 and total Hsp90 over the course of T cell activation was tracked. Both total Hsp90 cellular content and eHsp90 expression in anti-CD3/28 stimulated human PBMCs were evaluated. […] Specifically, anti-CD3/28 stimulation caused eHsp90 up regulation in CD69+/CD25+ and CD69+/CD25− T-cell populations with a 5-8 fold increase within the first 24 hours post activation, whereas CD69−/CD25− T cells show no increase in probe or eHsp90 levels (see. FIG. 3B). […] One candidate client eHsp90 protein is CD25, the IL-2 receptor. […] Here it was observed that CD25 expression peaked at 72 hours post activation, followed by a reduction in expression thereafter which correlates with reduced eHsp90 expression (see. FIG. 3D). Due to the tight correlation of CD25 and eHsp90 expression, it further tested whether exogenous IL-2 stimulation could maintain high expression of both proteins in activated T cells 72-96 hours post-stimulation. […] Due to IL-2's ability to enhance eHsp90 expression in activated cells, the impacts of eHsp90 inhibition in activated T cells on inflammatory signaling were investigated. Human CD3+ T cells were stimulated with CD3/CD28 activating antibodies for 24 hours in the presence of HS-131. Compared to vehicle treated cells. […] IFNY (p<0.001). IL-17A (p<0.001). MIP-1a/B (p=0.013) and TNF a (p=0.025) (see. FIG. 3F).
# eHsp90 = experiment: In vivo tracking of eHsp90 expression in CIA mouse model of RA (flow cytometry, CryoViz imaging)
# Procedure: FIG. 5A is a schematic of CIA mouse model of RA experimental design, wherein mice were inoculated with CIA on day 0) and 21. […] 6-hours post treatment mice were whole body cryopreserved. […] Gated regions indicate CD4 and CD8 T-Cell populations isolated from individual mice. eHsp90 expression in CD4 and CD8 T cells 6 hours post HS-131 or HS-198 treatment. N=3+SD. Experiments represent 3 biological replicates.
# CIA Disease: Collagen was prepared at 4 mg/ml in 0.01 N acetic acid. Equal volumes of 4 mg/ml collagen and 5 mg/ml Freund's complete adjuvant were emulsified by hand mixing with syringes for approximately 5 min, at which point a bead of this material holds its form when placed in water. On study days 0 and 21, animals were anesthetized with isoflurane and given intradermal injections of a total of 400 μg of type II collagen in Freund's complete adjuvant at the base of the tail.
# CryoViz™ Imaging: Whole mice were imaged at 10.23 μm×10.23 μm in-plane resolution using an Olympus MVX-10 microscope with a 1X objective and 0.63× magnification and 40 μm section thickness, using the Cryo Viz™ (BioInVision, Inc., Cleveland, USA). CryoViz™ is a fully automated, serial sectioning-and-imaging system which provides 3-dimensional, tiled, microscopic anatomical bright field and molecular fluorescence images over large fields-of-view such as a whole mouse. Images were acquired using a dual band FITC/TxRed fluorescence filter (Chroma, Inc., Rockingham, VT), a liquid crystal RGB filter and a low-noise monochrome camera. Raw images acquired by the Cryo Viz™ were processed to generate 3D color anatomical brightfield and molecular fluorescence volumes using the Cryo Viz™ Preprocessor software (BioIn Vision, Inc., Cleveland, Ohio). These 3D volumetric image data were then processed using the CryoViz™ 3D Visualizer software (BioInVision, Inc., Cleveland, USA) to obtain 3D reconstructed brightfield and fluorescence volume renderings and movies with 2D slice cutaway animations, showing the 2D/3D biodistribution of TxRed labeled HS-131 within the mouse volume.
# This was consistently seen in cell culture, tumor cell xenografts and mouse models of spontaneous metastatic disease (Barrott et al. Chem Biol 20. 1187-1197 (2013)). […] To determine if this phenomenon occurred within the context of a fully functional immune system, the collagen induced arthritic (CIA) mouse model of human rheumatoid arthritis (RA) was utilized (Rice et al. Arthritis Rheum 58. 3765-3775 (2008)). Mice (DBA/IlacJ ˜8 weeks old) reliably develop polyarthritis when immunized against bovine type II collagen (Scarneo et al. Arthritis Res Ther 21, 292 (2019): Campbell et al., Ann Rheum Dis 56, 364-368 (1997)). The disease that occurs is usually non-symmetric, and any combination of paws/joints may be affected. Mice were injected […] with bovine collagen at Day (and then again 21 days later (FIG. 5A). This second injection triggered the development of the CIA related symptoms over the next several days within the joints. A primary mediator of local inflammatory responses in autoimmunity are invading T cell populations recognizing foreign antigens. To determine if invading T cells at sites of active disease expressed eHsp90, the animals were injected with HS-131 or HS-198. This was done at the peak of RA symptoms following the second immune challenge. After 6 hours, the animals were euthanized, immediately cryo-frozen in liquid nitrogen and cryo-sectioned (see, FIG. 5A).
# Approximately, 500 40 μm slices were made and each slice imaged with both bright field and by fluorescence at Ex640 nm/Em680 nm. Evaluation of the biodistribution was then made by histological examination of individual slices and after in silico reconstruction of the entire mouse anatomy (see, FIGS. 5B-5E).
structure (smiles),measurement,setting,value
Cc1nn(-c2ccc(C(N)=O)c(NCCCOCCOCCOCCOCCOCCCNCc3ccc(C(=C\C=C4\N(CCCCS(=O)(=O)[O-])c5ccccc5C4(C)C)/C=C/C4=[N+](CCCCS(=O)(=O)O)c5ccccc5C4(C)C)cc3)c2)c2c1C(=O)CC(C)(C)C2 [HS-131],GM-CSF,Human CD3+ T cells; p<0.001,significantly reduced
same,IFNY,Human CD3+ T cells; p<0.001,significantly reduced
same,IL-17A,Human CD3+ T cells; p<0.001,significantly reduced
same,MIP-1a/B,Human CD3+ T cells; p=0.013,significantly reduced
same,TNF a,Human CD3+ T cells; p=0.025,significantly reduced
same,probe uptake in joints of naïve non diseased animal compared to CIA diseased animal,"eHsp90; 10 nmoles tail vein, 6 hours post injection (FIGS. 6A-6C)",no marked HS-131 in the joints
same,systemic distribution in whole-body reconstruction of CIA mice,eHsp90; 6 hours post tail vein injection,largely confined to areas of active immune cell invasion
same,probe signal (eHsp90 expression) in T cells of PBMC populations from CIA mice by flow cytometry,"eHsp90; 6 hours post tail vein injection, CD4 and CD8 T cells (FIG. 5B)",pronounced eHsp90 expression
same,"probe localization in hind leg, knee, hip and paw of CIA mouse","eHsp90; 6 hours post tail vein injection, cryo-sections (FIG. 5C)",marked increase
same,fluorescence associated with the lower intestine of CIA mice,eHsp90; 24 hours post HS-131 injection (FIG. 7B),no discrete fluorescence
same,route of elimination / clearance,eHsp90; mice,via the hepatobiliary system and intestines; also recorded: exclusively eliminated through the biliary system and intestine; also recorded: rapid hepatobiliary clearance
